Test results reported in ChEMBL document CHEMBL1122521, “Nucleic acid related compounds. 47. Synthesis and biological activities of pyrimidine and purine "acyclic" nucleoside analogues” (J Med Chem, 1984).
In brackets after ≈: the same amount, converted by molar mass.

test system: Vaccinia virus; experiment: Concentration required to reduce cytopathogenicity of vaccinia virus by 50% in primary rabbit kidney (PRK) cells; format: functional, Orthopoxvirus vaccinia

Row | SMILES | ID50
1 | CN(C)c1nc2c(=O)[nH]c(N)nc2n1COCCO | >=300 ug ml-1
2 | CNc1nc2c(=O)[nH]c(N)nc2n1COCCO | >400 µg/mL
3 | CC(=O)OCCOCn1cnc2c(Cl)ncnc21 | 20 µg/mL (≈ 73.9 µM)
4 | Nc1nc2c(nc(I)n2COCCO)c(=O)[nH]1 | >400 µg/mL
5 | Nc1ncnc2c1ncn2COCCO | 20 µg/mL (≈ 95.6 µM)
6 | Nc1nc2c(nc(O)n2COCCO)c(=O)[nH]1 | >400 µg/mL
7 | Nc1nc2c(ncn2COCCO)c(=O)[nH]1 [ACYCLOVIR] | 50 µg/mL (≈ 222 µM)
8 | Nc1nc(Cl)c2ncn(COCCO)c2n1 | 70 µg/mL (≈ 287 µM)
9 | Nc1nc(O)c2nc(N3CCCCC3)n(COCCO)c2n1 | >400 µg/mL
10 | Nc1ccn(COCCO)c(=O)n1 | >400 µg/mL
11 | Nc1nc2c(nc(Br)n2COCCO)c(=O)[nH]1 | >400 µg/mL
12 | CC(=O)OCCOCn1cnc2c(Cl)nc(N)nc21 | 70 µg/mL (≈ 245 µM)
13 | Cc1nc2c(O)nc(N)nc2n1COCCO | >400 µg/mL
14 | Nc1nc2c(nc(N)n2COCCO)c(=O)[nH]1 | >100 µg/mL
15 | O=c1[nH]c(=O)n([C@H]2C[C@H](O)[C@@H](CO)O2)cc1I [IDOXURIDINE] | 0.2 µg/mL (≈ 0.565 µM)
16 | O=c1[nH]c(=O)n([C@H]2C[C@H](O)[C@@H](CO)O2)cc1/C=C/Br [BRIVUDINE] | 7 µg/mL (≈ 21 µM)
